In general, MRT refers to a mean duration of stay, worked out from the concentration-time curve.

For data set [1] the following is noted: in vivo.
A short description of data set [2]: Pharmacokinetics in C57 mice. The note with it: C57, mouse, in vivo. As to the method:
After subcutaneous or intravenous administration to C57 mice, plasma was collected and the drug concentration in plasma was determined to illustrate the in vivo pharmacokinetic properties of the compound according to the present invention. […] 20.0 µL of thawed plasma sample was taken. 20 µL of 50% aqueous methanol solution (containing 100 ng mL^-1 Tolbutamide) and 60 µL of acetonitrile were added sequentially to precipitate protein. The mixture was vortexed for 5 minutes, and centrifuged at 4815 rpm for 8 minutes. 50.0 µL of the supernatant was taken, into which 50.0 µL of 0.5% aqueous formic acid solution was added. The mixture was vortexed for 5 minutes. 50 µL of the mixture solution was sampled and injected into the LC-MS/MS to determine the drug concentration in plasma. Based on the drug concentration in plasma of the compounds in C57 mice, the pharmacokinetic parameters were calculated by applying the software Winnolin 8.3 in a non-compartmental model, and the results were shown in Table 7 and Table 8 below. Table 7 Average Pharmacokinetic Parameters after Single Subcutaneous Administration to Mice

The nature of data set [3]: Repeated administration on male rats for 2 weeks (toxicity, toxicokinetics). It counts as in vivo, SD male rats. As to the method: 77 SD male rats (SPF grade) were selected and randomly divided into 10 groups based on body weight. Group 1 was the vehicle control group, including 5 animals. […] Group 5 to Group 7 were the groups administrated with the test substance 1; and Group 8 to Group 10 were the groups administrated with the test substance 2, each group including 8 animals, wherein 5 animals for primary test, and 3 animals for toxicokinetics test, and the administration dose was 1, 3 and 10 mg/kg respectively. Each of the above groups was continuously administered twice a week for 2 weeks (administrating at Day 1, Day 5, Day 8, Day 12 and Day 15).
During the experiment, the cage condition monitoring, detailed clinical observations, determination of the food consumption, determination of body weight, measurement of the blood biochemical and hematology indicator, investigation of the gross anatomy, weighing of the organ, studying on toxicokinetic were performed on all the groups of the animals.
Original data during each time period was tabulated. The average values and standard deviations and/or group change were calculated for each assay endpoint based on the group and sex. For each endpoint, the administrated group will be compared with the control group in the following aspect. A logarithmic conversion was performed to the endpoint data as desired prior to the start of the specific analyses.

`CC[C@H](C)[C@H](NC(=O)[C@H](CC(C)C)NC(=O)[C@H](Cc1c[nH]c2ccccc12)NC(=O)[C@H](CCC(N)=O)NC(=O)[C@@H](NC(=O)[C@H](Cc1ccccc1)NC(=O)[C@H](C)NC(=O)[C@H](CCCCNC(=O)COCCOCCNC(=O)COCCOCCNC(=O)CC[C@H](NC(=O)CCCCCCCCCCCCCCCCCCC(=O)O)C(=O)O)NC(=O)[C@H](CCC(N)=O)NC(=O)[C@H](C)NC(=O)[C@@H](NC(=O)[C@H](CCCCN)NC(=O)[C@H](CC(=O)O)NC(=O)[C@H](CC(C)C)NC(=O)C(C)(C)NC(=O)[C@@H](NC(=O)[C@H](CO)NC(=O)[C@H](Cc1ccc(O)cc1)NC(=O)[C@H](CC(=O)O)NC(=O)[C@H](CO)NC(=O)[C@@H](NC(=O)[C@H](Cc1ccccc1)NC(=O)[C@@H](NC(=O)CNC(=O)[C@H](CCC(=O)O)NC(=O)C(C)(C)NC(=O)[C@@H](N)Cc1ccc(O)cc1)[C@@H](C)O)[C@@H](C)O)[C@@H](C)CC)[C@@H](C)CC)C(C)C)C(=O)N[C@@H](C)C(=O)NCC(=O)NCC(=O)N1CCC[C@H]1C(=O)N[C@@H](CO)C(=O)N[C@@H](CO)C(=O)NCC(=O)N[C@@H](C)C(=O)N1CCC[C@H]1C(=O)N1CCC[C@H]1C(=O)N1CCC[C@H]1C(=O)N[C@@H](CO)C(N)=O` [Tirzepatide, reference compound]: in data set [1], the “heart rate recovery time” value is more than 120 h. In addition, the MRT in data set [2] (iv, MRT(0-t)) turned out to be 11.4 h; in data set [2] (iv, MRT(0-∞)), 12 h; in data set [2] (sc, MRT(0-t)), 14.5 h; in data set [2] (sc, MRT(0-∞)), 15.3 h. Also, the MTD in data set [3] (MTD for 2 weeks, rats) is 2077 nmol/kg (MTD for 2 weeks). The “dose at which decrease of the body weight was observed after the first administration” value in data set [3] (SD male rats) is reported as not below 3 mg/kg. For the same molecule, the “Gross Anatomy” value in data set [3] (SD male rats, 1, 3, 10 mg/kg twice a week for 2 weeks) was “no abnormalities were found”. Also, in data set [3] (SD male rats, administered twice a week for 2 weeks), the “accumulation (toxicokinetic)” value is listed as “no substantial accumulation”. In data set [3] (Sprague-Dawley, rat, in vivo, SD male rats, administered twice a week for 2 weeks), this molecule gave an MTD at 336 h not below 10 mg/kg. In addition, the “Safety Window (based on dosage)” value in data set [3] (rat 2-week MTD versus efficacy dose) is reported as 416.
